Laboratory results published in US20160296499A1, “Spiroindoline Antiparasitic Derivatives” (ZOETIS SERVICES LLC, priority 2013, published 2016).
Read-outs that look alike come from different tables or passages of the source.

Tests used:
mammals = settings: Brittain et. al.; cited from earlier work
vertebrate VAChT = target: T1, vertebrate VAChT (Homo sapiens, UniProt Q16572); settings: Khare et. al.; cited from earlier work
T1 sequence (Q16572 1-532): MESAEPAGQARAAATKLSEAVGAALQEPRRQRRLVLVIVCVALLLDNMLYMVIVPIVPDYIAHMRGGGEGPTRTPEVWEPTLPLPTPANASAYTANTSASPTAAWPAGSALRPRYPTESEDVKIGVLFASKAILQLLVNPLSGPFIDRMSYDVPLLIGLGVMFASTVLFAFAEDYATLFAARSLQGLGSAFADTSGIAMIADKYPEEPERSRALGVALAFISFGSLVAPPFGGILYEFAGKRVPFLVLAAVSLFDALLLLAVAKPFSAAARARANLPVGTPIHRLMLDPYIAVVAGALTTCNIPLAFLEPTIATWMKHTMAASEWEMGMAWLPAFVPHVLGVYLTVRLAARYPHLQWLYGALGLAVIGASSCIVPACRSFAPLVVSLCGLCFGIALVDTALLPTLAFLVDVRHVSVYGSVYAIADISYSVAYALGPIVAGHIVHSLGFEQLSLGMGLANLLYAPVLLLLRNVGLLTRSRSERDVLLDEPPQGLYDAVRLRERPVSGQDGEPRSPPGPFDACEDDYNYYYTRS

[1] = tested on: Dirofilaria immitis microfilariae; assay: Dirofilaria immitis, Microfilariae (DiMF) In Vitro Assay; settings: Dirofilaria immitis
Haemonchus contortus L3 = assay: Haemonchus contortus, Larvae Stage 3 (HcL3) In Vitro Assay; settings: Haemonchus contortus
[2] = target: T2, bovine vesicular acetylcholine transporter (VAChT) (Bos taurus, UniProt E1BK36); assay: Radioligand Binding Assay; settings: Bovine binding Ki, CHO-K1 membranes with recombinant bovine VAChT, [3H]Compound X6 0.3 nM
T2 sequence (E1BK36 1-524): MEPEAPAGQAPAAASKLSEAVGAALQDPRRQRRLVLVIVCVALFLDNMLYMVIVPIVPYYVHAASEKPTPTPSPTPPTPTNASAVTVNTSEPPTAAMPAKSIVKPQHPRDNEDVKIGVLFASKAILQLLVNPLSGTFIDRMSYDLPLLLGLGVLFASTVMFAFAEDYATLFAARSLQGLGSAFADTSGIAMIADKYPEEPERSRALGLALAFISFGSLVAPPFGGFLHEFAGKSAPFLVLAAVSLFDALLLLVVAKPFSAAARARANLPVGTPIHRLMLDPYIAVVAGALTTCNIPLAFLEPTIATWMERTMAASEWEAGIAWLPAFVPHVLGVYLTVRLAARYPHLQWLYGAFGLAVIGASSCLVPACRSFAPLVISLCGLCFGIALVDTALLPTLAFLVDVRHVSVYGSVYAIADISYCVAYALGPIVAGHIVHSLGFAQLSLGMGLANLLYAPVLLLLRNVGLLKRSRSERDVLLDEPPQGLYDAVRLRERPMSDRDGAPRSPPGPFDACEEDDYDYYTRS

[3] = 96 hours, 37° C., read-out: HcL3 MEC
[4] = 72 h, read-out: Di MF, MEC, decrease in microfilariae motility by visual assessment, curve starting at 100 μM
[5] = 96 h, read-out: HcL3 MEC, Minimal Effective Concentration whereby worm motility is inhibited by approximately 70%, 37° C., tested 0.001-100 μM

| SMILES | toxicity to mammals (mammals) | binding affinity to vertebrate VAChT (vertebrate VAChT) | minimal effective concentration ([1]; 72 hours, read-out: Di MF) | minimal effective concentration (Haemonchus contortus L3; [3]) | Ki [2] | minimal effective concentration [1, 4] | minimal effective concentration (Haemonchus contortus L3; [5]) |
| --- | --- | --- | --- | --- | --- | --- | --- |
| OC1CCCCC1N1CCC(c2ccccc2)CC1 (centres unmarked) [Vesamicol, 2-(4-phenyl-piperidino)-cyclohexanol] | highly toxic | high affinity | – | – | – | – | – |
| O=C(NCc1ccnc(C(F)(F)F)c1)N1CC2(CCN(C/C=C/c3ccc(Cl)cc3)CC2)c2cc(OC(F)(F)F)ccc21 [Example 179, (E)-1′-(3-(4-chlorophenyl)allyl)-5-(trifluoromethoxy)-N-((2-(trifluoromethyl)pyridin-4-yl)methyl)spiro[indoline-3,4′-piperidine]-1-carboxamide] | – | – | 3.3 µM | 7.6 µM | 371 nM | – | – |
| O=C(NCc1ccnc(Cl)c1)N1CC2(CCN(C/C=C/c3ccc(Cl)c(Cl)c3)CC2)c2c1ccc(F)c2Cl [Example 146, (E)-4-chloro-N-((2-chloropyridin-4-yl)methyl)-1′-(3-(3,4-dichlorophenyl)allyl)-5-fluorospiro[indoline-3,4′-piperidine]-1-carboxamide] | – | – | – | – | 21.7 nM | 5.7 µM | 3.3 µM |
| O=C(NCc1ccnc(Cl)c1)N1CC2(CCN(C/C=C/c3ccc(Cl)cc3)CC2)c2c1ccc(Cl)c2Cl [Example 144, (E)-4,5-dichloro-1′-(3-(4-chlorophenyl)allyl)-N-((2-chloropyridin-4-yl)methyl)spiro[indoline-3,4′-piperidine]-1-carboxamide] | – | – | 10 µM | 3.3 µM | 26.2 nM | – | – |
| O=C(NCc1cnc(Cl)s1)N1CC2(CCN(C/C=C/c3ccc(Cl)cc3)CC2)c2cc3c(cc21)COC3 [Example 3, (E)-1′-(3-(4-chlorophenyl)allyl)-N-((2-chlorothiazol-5-yl)methyl)-5,7-dihydrospiro[furo[3,4-f]indole-3,4′-piperidine]-1(2H)-carboxamide] | – | – | 5.7 µM | 3.3 µM | 31.2 nM | – | – |
| O=C(NCc1ccnc(Cl)c1)N1CC2(CCN(C/C=C/c3ccc(F)cc3)CC2)c2c1ccc(F)c2Cl [Example 158, (E)-4-chloro-N-((2-chloropyridin-4-yl)methyl)-5-fluoro-1′-(3-(4-fluorophenyl)allyl)spiro[indoline-3,4′-piperidine]-1-carboxamide] | – | – | 4.3 µM | 9.9 µM | 54.8 nM | – | – |
| O=C(NCc1ccc(O)cc1)N1CC2(CCN(C/C=C/c3ccc(Cl)c(Cl)c3)CC2)c2c1ccc1scnc21 [Example 18, (E)-1-(3-(3,4-dichlorophenyl)allyl)-N-(4-hydroxybenzyl)spiro[piperidine-4,8′-thiazolo[4,5-e]indole]-6′(7′H)-carboxamide] | – | – | – | – | 2220 nM | 43.5 µM | 100 µM |
| O=C(NCc1ccnc(Cl)c1)N1CC2(CCN(C/C=C/c3ccc(Cl)cc3)CC2)c2c1ccc(OC(F)(F)F)c2Cl [Example 159, (E)-4-chloro-1′-(3-(4-chlorophenyl)allyl)-N-((2-chloropyridin-4-yl)methyl)-5-(trifluoromethoxy)spiro[indoline-3,4′-piperidine]-1-carboxamide] | – | – | 24 µM | 10 µM | 565 nM | – | – |
| COc1ccc2c(c1)C1(CCN(C/C=C/c3ccc(Cl)c(Cl)c3)CC1)CN2C(=O)NCc1ccnc(Cl)c1 [Example 167, (E)-N-((2-chloropyridin-4-yl)methyl)-1′-(3-(3,4-dichlorophenyl)allyl)-5-methoxyspiro[indoline-3,4′-piperidine]-1-carboxamide] | – | – | 33 µM | 6.9 µM | 184 nM | – | – |
| O=C(NCc1ccnc(Cl)c1)N1CC2(CCN(C/C=C/c3ccc(F)cc3)CC2)c2cc(Cl)c(Cl)cc21 [Example 141, (E)-5,6-dichloro-N-((2-chloropyridin-4-yl)methyl)-1′-(3-(4-fluorophenyl)allyl)spiro[indoline-3,4′-piperidine]-1-carboxamide] | – | – | 4.4 µM | 3.3 µM | 164 nM | – | – |
| O=C(NCc1ccnc(F)c1)N1CC2(CCN(C/C=C/c3ccc(Cl)c(Cl)c3)CC2)c2cc(-c3cncnc3)ccc21 [Example 112, 1′-[(E)-3-(3,4-dichlorophenyl)allyl]-N-[(2-fluoro-4-pyridyl)methyl]-5-pyrimidin-5-yl-spiro[indoline-3,4′-piperidine]-1-carboxamide] | – | – | – | – | 3340 nM | 4.4 µM | 100 µM |
| O=C(NCc1ccnc(F)c1)N1CC2(CCN(C/C=C/c3ccc(Cl)cc3)CC2)c2cc3c(cc21)COC3 [Example 2, (E)-1′-(3-(4-chlorophenyl)allyl)-N-((2-fluoropyridin-4-yl)methyl)-5,7-dihydrospiro[furo[3,4-f]indole-3,4′-piperidine]-1(2H)-carboxamide] | – | – | – | – | 321 nM | 10 µM | 18.2 µM |
| Cn1nccc1CNC(=O)N1CC2(CCN(C/C=C/c3ccc(Cl)c(Cl)c3)CC2)c2c1ccc1scnc21 [Example 27, (E)-1-(3-(3,4-dichlorophenyl)allyl)-N-((1-methyl-1H-pyrazol-5-yl)methyl)spiro[piperidine-4,8′-thiazolo[4,5-e]indole]-6′(7′H)-carboxamide] | – | – | 10 µM | 10 µM | 22.6 nM | – | – |
| O=C(NCc1ccnc(F)c1)N1CC2(CCN(C/C=C/c3ccc(Cl)c(Cl)c3)CC2)c2cc(-c3cccnc3)ccc21 [Example 110, 1′-[(E)-3-(3,4-dichlorophenyl)allyl]-N-[(2-fluoro-4-pyridyl)methyl]-5-(3-pyridyl)spiro[indoline-3,4′-piperidine]-1-carboxamide] | – | – | – | – | 7820 nM | 3.3 µM | 69.1 µM |
| O=C(NCc1ccnc(Cl)c1)N1CC2(CCN(C/C=C/c3ccc(Cl)cc3)CC2)c2cc(N3CCCC3)ccc21 [Example 76, (E)-1′-(3-(4-chlorophenyl)allyl)-N-((2-chloropyridin-4-yl)methyl)-5-(pyrrolidin-1-yl)spiro[indoline-3,4′-piperidine]-1-carboxamide] | – | – | – | – | 1420 nM | 1.8 µM | 100 µM |
| Cn1ccc(CNC(=O)N2CC3(CCN(C/C=C/c4ccc(Cl)c(Cl)c4)CC3)c3c2ccc2scnc32)n1 [Example 28, (E)-1-(3-(3,4-dichlorophenyl)allyl)-N-((1-methyl-1H-pyrazol-3-yl)methyl)spiro[piperidine-4,8′-thiazolo[4,5-e]indole]-6′(7′H)-carboxamide] | – | – | – | – | 511 nM | 10 µM | 100 µM |
| N#Cc1ccc(/C=C/CN2CCC3(CC2)CN(C(=O)NCc2ccnc(Cl)c2)c2cccc(C(F)(F)F)c23)cc1 [Example 99, (E)-N-((2-chloropyridin-4-yl)methyl)-1′-(3-(4-cyanophenyl)allyl)-4-(trifluoromethyl)spiro[indoline-3,4′-piperidine]-1-carboxamide] | – | – | – | – | 306 nM | 5.7 µM | 10 µM |
| O=C(NCc1ccnc(F)c1)N1CC2(CCN(C/C=C/c3ccc(Cl)cc3)CC2)c2cc(Br)ccc21 [Example 105, 5-bromo-1′-[(E)-3-(4-chlorophenyl)allyl]-N-[(2-fluoro-4-pyridyl)methyl]spiro[indoline-3,4′-piperidine]-1-carboxamide] | – | – | – | – | 32.2 nM | 3.3 µM | 3.3 µM |
| Cc1noc(C)c1-c1ccc2c(c1)C1(CCN(C/C=C/c3ccc(Cl)cc3)CC1)CN2C(=O)NCc1ccnc(-c2c(C)noc2C)c1 [Example 186, (E)-1′-(3-(4-chlorophenyl)allyl)-5-(3,5-dimethylisoxazol-4-yl)-N-((2-(3,5-dimethylisoxazol-4-yl)pyridin-4-yl)methyl)spiro[indoline-3,4′-piperidine]-1-carboxamide] | – | – | – | – | 1360 nM | 3.3 µM | 100 µM |
